Reference: PMC6564044, “Exploring E-cadherin-peptidomimetics interaction using NMR and computational studies” (PLoS Computational Biology, 2019)
Like-named read-outs stand apart in the source and are kept apart here. Positions of bridges follow the written chain, without caps; N, C: chain ends.

Assays:
wt E-cadherin-EC1-EC2 [1] = experiment: KD determination by STD-NMR titration (STD-AF isotherm); type: binding, human; settings: STD-AF vs ligand concentration, two STD measurements per point; 283 K; protein 0.05 mM, ligand 2.0-16.0 mM
Text: STD-NMR is a consolidated technique based on Overhauser effect that is used to study the interactions between small ligands and macromolecules. The method relies on the selective irradiation of the protein, which allows magnetization to be transferred to the bound ligand (which is in great excess in solution compared to the protein concentration). The saturated ligand is displaced in solution due to the binding equilibrium and the observation of the ligand signals in the NMR spectrum provides an indication of the interaction. […] In fact, the intensity of the STD signal (expressed as absolute STD percentage) reflects the proximity of the ligand to the protein surface. […]
In order to evaluate the interaction strength between E-cadherin and compound 1, we acquired a series of STD spectra at variable ligand concentrations. The STD amplification factor (STD-AF) can be calculated by multiplying the observed STD by the molar excess of the ligand over the protein [20, 21, 25–27], so that its values depend on the fraction of bound protein. […]
Supplementary file pcbi.1007041.s004.tif: S3 Fig Variation of STD-AF versus the increase of ligand 1 concentration in presence of E-cadherin interacting protons and the intensities observed are reported in the graph. We measured the KD value of compound 1 (S3 Fig) and 2 in the presence of E-cadherin by STD (for each point we performed two STD measurements). […]

[2] = Free ligand NMR conformational analysis (NOESY, VT-NMR); type: physicochemical; settings: for hydrogen bonding of amide/exchangeable protons: free ligand, VT experiments (compound 1); for NOESY free-state conformation: phosphate buffer, 283 K and 298 K
Procedure: NMR spectroscopy experiments were performed at 283K and 298K on Bruker Avance 400 and 600 MHz spectrometers. All proton and carbon chemical shifts were assigned unambiguously and the assignments are reported in S1–S4 Tables. The NMR experiments were carried out in an aqueous phosphate (20 mM) buffer pH = 7 with 150 mM NaCl and 1 mM CaCl2 in order to observe amide protons with 10% D2O. Two-dimensional experiments (TOCSY, NOESY, ROESY and HSQC) were carried out on samples at a concentration range of 3–6 mM. NOESY experiments were performed with a mixing time of 200 and 700 ms.
In order to obtain clear spectra, the water signal suppression was achieved by using excitation sculpting sequence from Bruker library (DPFGSE, Double Pulse Field Gradient Spin Echo).
The conformations of the peptidomimetics were analysed with respect to hydrogen bonding of amide protons (VT-NMR spectroscopy) and NOE contacts.

wt E-cadherin-EC1-EC2 [3] = experiment: tr-NOESY bound conformation; type: binding, human; settings: presence of E-cadherin
Procedure: (§1) STD–NMR and tr-NOESY spectra were acquired in 20 mM phosphate buffer at pH 7.4 (with 150 mM NaCl and 1 mM CaCl2) and 40 μM EC1-EC2 fragments of E-cadherin. In this condition, a monomeric form is predominant in solution [28]. We performed STD-NMR experiments at 283K, 290K and 298K since lowering the temperature helps to […] the rotational correlation time of the receptor and to increase the effective magnetization transfer. […] Furthermore, we also studied the binding modes of the ligands in the presence of the truncated mutant (E-cadherin-(Val3)-EC1-EC2).
(§2) The spectra were acquired with a Bruker Avance 600 MHz instrument at 283, 290 and 298 K, in a 3 mm NMR tube and in the phosphate buffer previously described (200 μL).
(§3) The interaction between ligands and isolated proteins was detected using trNOESY, trROESY and STD experiments. In trNOESY and trROESY experiments, water suppression was achieved by use of an excitation sculpting pulse sequence. In STD experiments water suppression was achieved by using the WATERGATE 3-9-19 pulse sequence.

[4] = system: E-cadherin-(Val3)-EC1-EC2; experiment: STD-NMR epitope mapping with truncated E-cadherin; type: binding, human; settings: for STD epitope with truncated E-cadherin: three temperatures, ligand-protein 80:1
Procedure: as §1, §2, §3
(§4) The on-resonance irradiation of the protein was kept at -0.05 ppm. Off-resonance irradiation of the protein was applied at 200 ppm, where no protein signals were visible. Selective presaturation of the protein was achieved by a train of Gauss shaped pulses of 49 ms length each. The total length of the saturation train was 2.94 s.
(§5) All the experiments were conducted with the first two domains (EC1-EC2) of wt E–cadherin (Molecular Weight EC1-EC2 construct = 23 KDa) and with the construct lacking the first two residues (E-cadherin-(Val3)-EC1-EC2), with a ligand-protein ratio of 80:1.

wt E-cadherin-EC1-EC2 [5] = experiment: STD-NMR epitope mapping with wt E-cadherin-EC1-EC2; type: binding, human
Text: STD-NMR is a consolidated technique based on Overhauser effect that is used to study the interactions between small ligands and macromolecules. The method relies on the selective irradiation of the protein, which allows magnetization to be transferred to the bound ligand (which is in great excess in solution compared to the protein concentration). The saturated ligand is displaced in solution due to the binding equilibrium and the observation of the ligand signals in the NMR spectrum provides an indication of the interaction. Those ligand protons that are nearest to the protein are more likely to become highly saturated, and therefore show the strongest signal in the mono-dimensional STD spectrum. Owing to the efficiency of the saturation process, the modulation of the ligand signal intensity is used as an epitope-mapping method to describe the target-ligand interactions. In fact, the intensity of the STD signal (expressed as absolute STD percentage) reflects the proximity of the ligand to the protein surface. Therefore, the group epitope mapping obtained provides information about the nature of the chemical moieties of the ligand that are crucial for molecular recognition in the binding site. We also used the STD amplification factors (STD-AF) to derive the dissociation constant (KD) of the ligand-protein complexes. Moreover, we performed tr-NOESY experiments in order to determine the preferred bound conformation of the ligands.
as §1, §2, §3, §4, §5
Since calcium ions are important to rigidify the EC1-EC2 linker region in the monomeric protein and considering that the use of phosphate buffer in the presence of CaCl2 may be critical, due to the limited solubility of CaHPO4, we studied the stability of the protein in phosphate buffer. We monitored the chemical shift variation in ^1H-^15N-HSQC experiment using the ^15N-labeled protein for 24 hours and we can confirm that the protein remains in the correct folding.

E-cadherin-EC1-EC2 = settings: mutant EC1-EC2 lacking Asp1-Trp2 (PDB 4ZTE) or intact EC1-EC2 as stated, cited from earlier work
Text: Recently, we reported the first library of small peptidomimetic molecules targeting the strand-swapped dimer interfaces of E- and N-cadherin. These compounds are mimics of the tetrapeptide sequence Asp1-Trp2-Val3-Ile4 (DWVI) of the adhesion arm, modified by replacing the central dipeptide unit (WV) with various scaffolds, all of them bearing a benzyl group that is intended to mimic the indole moiety of Trp2.

[6] = system: N-cadherin mediated processes; settings: cited from earlier work
Text: Beside its broad-ranging effects on physiological tissue organization, classical cadherin dysfunction is often correlated with cancer progression and metastasis. Despite Epithelial (E)- to Neural (N-) cadherin switching being considered a molecular hallmark of epithelial to mesenchymal transition of cancer cells, carcinomas and distal metastases often retain E-cadherin expression, as observed for instance in late stage tumors in epithelial ovarian cancer (EOC). In this context, targeting the E-cadherin adhesive interface with small molecules could have a therapeutic a ...

[7] = VT-NMR, phosphate 20 mM, pH 7, 10% D2O
[8] = 283, 290 and 298 K, wt E-cadherin-EC1-EC2
[9] = 283 K, wt E-cadherin-EC1-EC2, ligand-protein 80:1
[10] = 290 K, wt E-cadherin-EC1-EC2, ligand-protein 80:1

## CCC(C)C(NC(=O)CC1NC(=O)C(CNC(=O)C(N)CC(=O)O)N(Cc2ccccc2)C1=O)C(=O)NC(C)(C)C.O=C(O)C(F)(F)F (stereo not shown) [compound 1]
Wt E-cadherin-EC1-EC2 [1]
  Kd: > 20 mM
[2]; VT-NMR, phosphate 20 mM, pH 7, 150 mM NaCl, 1 mM CaCl2, 10% D2O
  Δδ/ΔT of NH10: 4.67 ppb*10^3
[2]; [7]
  Δδ/ΔT of NH1: 8.33 ppb*10^3
  Δδ/ΔT of NHIle: 7.67 ppb*10^3
  Δδ/ΔT of NHtBu: 7.33 ppb*10^3
[2]
  hydrogen bonding of amide/exchangeable protons: NH10 is the only one that could be engaged in an inter-molecular hydrogen bond
  NOESY free-state conformation: equilibrium between different conformations
Wt E-cadherin-EC1-EC2 [3]
  tr-NOESY bound conformation / contacts: in the bound form compound 1 adopts an extended conformation
[4]; E-cadherin-(Val3)-EC1-EC2
  STD epitope with truncated E-cadherin: only the aromatic protons are able to interact with the protein
[4]; E-cadherin-(Val3)-EC1-EC2 vs wt, 283 K
  binding affinity to truncated vs wt E-cadherin: weaker binding affinity
[4]; lower amount of D2O, E-cadherin-(Val3)-EC1-EC2
  N-terminal Asp amine signal in STD: the N-terminal amine of the Asp residue of the ligand can be observed
Wt E-cadherin-EC1-EC2 [5]; [8]
  STD interaction of aromatic moiety: interacts at all the temperatures with similar strength
Wt E-cadherin-EC1-EC2 [5]; 290 K, wt E-cadherin-EC1-EC2
  STD epitope changes (NH10, NH1, Ile NH): NH10 STD signal disappears, NH1 decreases in intensity and the signal of the amidic Ile proton appears
Wt E-cadherin-EC1-EC2 [5]; 298 K, wt E-cadherin-EC1-EC2
  STD epitope, NHIle: NHIle signal replaces those of NH1 and NH10
Wt E-cadherin-EC1-EC2 [5]; lowest temperature (283 K), wt E-cadherin-EC1-EC2
  STD epitope, NH1 and NH10: strong interactions at the lowest temperature
Wt E-cadherin-EC1-EC2 [5]; temperature dependence, wt E-cadherin-EC1-EC2
  STD interaction of Ile backbone NH: seems to interact only at a higher temperature
E-cadherin-EC1-EC2
  X-ray binding / co-crystallization: binds to a dimeric conformation of E-cadherin, the so-called ‘X-dimer’
E-cadherin-EC1-EC2; listed as compounds 1
  X-ray binding / co-crystallization: attempts to co-crystallize both compounds 1 and 2 with intact E-cadherin-EC1-EC2 did not yield results

## CCC(C)C(NC(=O)C1CCC2CCN(Cc3ccccc3)CC(NC(=O)C(N)CC(=O)O)C(=O)N21)C(N)=O.O=C(O)C(F)(F)F (stereo not shown) [compound 2]
Wt E-cadherin-EC1-EC2 [1]
  Kd: > 20 mM
[2]
  hydrogen bonding of amide/exchangeable protons: the exchangeable protons are not involved in intra-molecular hydrogen bond formation
  NOESY free-state conformation: did not show any significant long range NOE contact typical of a preferred conformation
Wt E-cadherin-EC1-EC2 [3]
  tr-NOESY bound conformation / contacts: no long range interactions were detected
[4]; E-cadherin-(Val3)-EC1-EC2
  STD epitope with truncated E-cadherin: the only protons that are involved in the interaction are the aromatic ones
Wt E-cadherin-EC1-EC2 [5]; [8]
  absolute STD % of aromatic protons: about 0.2%
Wt E-cadherin-EC1-EC2 [5]; 283 K, 40 μM protein, 20 mM phosphate pH 7.4, 150 mM NaCl, 1 mM CaCl2, ligand-protein 80:1
  absolute STD % of NH19: 2.078%
Wt E-cadherin-EC1-EC2 [5]; [9]
  absolute STD % of C-terminal amidic NH2: 0.2%
  absolute STD % of scaffold H4/H6: 0.265%
Wt E-cadherin-EC1-EC2 [5]; 290 K, wt E-cadherin-EC1-EC2
  STD signal of scaffold H4 and H6: not detectable
Wt E-cadherin-EC1-EC2 [5]; [10]
  absolute STD % of C-terminal amidic NH2: 0.463%
  absolute STD % of NH19: 1.441%
Wt E-cadherin-EC1-EC2 [5]; 298 K, wt E-cadherin-EC1-EC2
  protons observable in STD spectrum: only the aromatic protons and the amidic NH2 (0.806%) are observable in the STD spectrum
Wt E-cadherin-EC1-EC2 [5]; 298 K, wt E-cadherin-EC1-EC2, ligand-protein 80:1
  absolute STD % of C-terminal amidic NH2: 0.806%
E-cadherin-EC1-EC2
  X-ray binding / co-crystallization: attempts to co-crystallize both compounds 1 and 2 with intact E-cadherin-EC1-EC2 did not yield results

## Ac-CHAVC-NH2 (disulfide 1-5 (inferred)) [ADH-1]
[6]
  reported activity: anti-angiogenic agent able to cause cell apoptosis
